Laboratory results as given in patent US20190060275A1, “Administration of hypoxia activated prodrugs and antiangiogenic agents for the treatment of cancer” (Molecular Templates, Inc., priority 2010, published 2019).
Read-outs that look alike come from different tables or passages of the source. Marks after values point to notes of the source that are not given here.

How the values were obtained:
[1] = tested on: 786-O human renal cell carcinoma (RCC) xenograft; assay: Tumor growth inhibition in 786-O RCC xenograft; assay type: in vivo, nude mice
Experimental: (§1) Xenograft tumors were established by s.c. implantation of 5×10^6 786-O human renal cell carcinoma (RCC), 5×10^6 A375 melanoma, or 1×10^6 H460 human non-small cell lung cancer (NSCLC) cells into the flanks of nude mice, or 5×10^6 PLC/PRF/5 hepatocellular carcinoma (HCC) into the flanks of Severe Combined Immunodeficient (SCID) mice. Tumor hypoxia was detected by pimonidazole immunostaining, and morphometric analysis was performed to determine the hypoxic fraction. When tumor size was approximately 100-150 mm^3, sunitinib or sorafenib was administered daily. Sunitinib at 20, 40, or 80 mg/kg was administered p.o. daily for 3 weeks (QDx21). For all of these studies except the study utilizing the A375 melanoma model, TH-302 administration began one week after antiangiogenic agent administration. In the A375 melanoma model, TH-302 administration was begun on the same day as sorafenib administration. TH-302 at 50 mg/kg was administered i.p. daily for 5 days on and 2 days off (QDx5) for 2 weeks. Sunitinib was administered 4 hours before TH-302 on days when both agents were given.
The following tables summarize the data obtained in the studies described above.

[2] = Maximum body weight loss (toxicity indicator) in xenograft-bearing nude mice
Experimental: as §1
(§2) In another study, sunitinib was administered for 5 weeks, and TH-302 was administered for 4 weeks, beginning one week after sunitinib therapy was initiated, in accordance with the methods of the invention.

[3] = tested on: 786-O human renal cell carcinoma (RCC) xenograft; assay: Tumor growth inhibition in 786-O RCC xenograft; assay type: in vivo, nude mice; remark: listed apart in the source
[4] = tested on: H460 human non-small cell lung cancer (NSCLC) xenograft; assay: Tumor growth inhibition in H460 NSCLC xenograft; assay type: in vivo, nude mice
Experimental: as §1, §2

[5] = tested on: PLC/PRF/5 hepatocellular carcinoma (HCC) xenograft; assay: Tumor growth inhibition in PLC/PRF/5 HCC xenograft; assay type: in vivo, SCID mice; settings: HCC: PLC/PRF/5; Sorafenib 20 mpk QD×16; TH-302 50 mpk
Experimental: as §1

A375 melanoma xenograft = assay: Tumor growth inhibition in A375 melanoma xenograft; assay type: in vivo, nude mice; settings: Sorafenib 20 mpk QD×16, TH-302 50 mpk begun on the same day as sorafenib
Experimental: as §1

[6] = Maximum body weight loss in PLC/PRF/5 xenograft-bearing SCID mice; settings: HCC: PLC/PRF/5; Sorafenib 20 mpk; TH-302 50 mpk; vehicle 5.9
Experimental: as §1, §2

[7] = tested on: metastatic renal cell carcinoma (mRCC); settings: cited from earlier work
RCC [8] = settings: cited from earlier work
breast cancer = settings: cited from earlier work
[9] = tested on: 786-O RCC xenograft tumors; assay: Antiangiogenic-induced hypoxia in 786-O xenograft tumors (pimonidazole / Hoechst 33342, morphometric analysis); assay type: in vivo, nude mice; settings: for hypoxic fraction in the 786-O xenograft tumor: morphometric analysis, vehicle 1.4±0.9%; for tumor hypoxia volume: vehicle 0.8±0.2%
Experimental: To measure the extent of tumor hypoxia and to illustrate methods for increasing the hypoxic fraction of a tumor with an antiangiogenic agent, so as to render the tumor more susceptible to treatment with a hypoxia activated prodrug, nude mice bearing 786-O RCC xenograft tumors were randomized into 3 groups, vehicle (8 mice), sunitinib (Sutent, Pfizer) 20 mg/kg and 40 mg/kg, QDx5, oral, respectively (6 mice each). Seventy one hours after the last sunitinib administration, pimonidazole was administered. Hoechst 33342 was administered 1 hour after administering pimonidazole. About a minute after administering the Hoechst 33342, the animals were sacrificed and tissues harvested.
Sorafenib 20 mpk (mgs per kilogram) and 40 mpk were orally administered once daily for 7 days. Pimonidazole was administered 3 h after the last sorafenib administration. Hoechst 33342 was administered 1 h after administering pimonidazole. About a minute after administering the Hoechst 33342, the animals were sacrificed and tissues harvested.

[10] = tested on: H460 non small cell lung cancer (NSCLC) xenograft tumors; assay: Sunitinib-induced hypoxia in H460 xenograft tumors (pimonidazole / Hoechst 33342, morphometrics); assay type: in vivo, nude mice; settings: sunitinib 40 mg/kg QDx5 intraperitoneally; vehicle 7.3±3.8%; p<0.05
Experimental: To measure the extent of tumor hypoxia and to illustrate methods for increasing the hypoxic fraction of a tumor with an antiangiogenic agent, so as to render the tumor more susceptible to treatment with a hypoxia activated prodrug, nude mice bearing H460 non small cell lung cancer (NSCLC) xenograft tumors were intraperitoneally administered sunitinib with the dose of 20 mg/kg and 40 mg/kg. QDx5, respectively (5 mice each), and compared with vehicle treated animals (5 mice). […] The percent hypoxic fraction in the harvested tissue was analyzed by morphometrics.

RCC [11] = settings: cited from earlier work; remark: listed apart in the source
[12] = tested on: PLC/PRF/5 hepatocellular cancer xenograft tumor; assay: Sorafenib-induced hypoxia in PLC/PRF/5 xenograft tumors; settings: vehicle 4.3±0.4%
Experimental: The hypoxia level in another cancer, hepatocellular cancer PLC/PRF/5, after sorafenib administration was also measured. The measurement was carried out as above, except that sorafenib was administered at 20 or 40 mg/kg once daily for 8 days.

[13] = RCC: 786-O, Sorafenib 30 mpk QD×14, TH-302 50 mpk QDx5/week for two weeks
[14] = H460, Sunitinib 3 wks + TH-302 2 wks study, TH-302 50 mpk monotherapy
[15] = H460, Sunitinib 5 wks + TH-302 4 wks study, TH-302 50 mpk monotherapy
[16] = NSCLC: H460, Sorafenib 20 mpk QD×16, TH-302 50 mpk
[17] = Melanoma: A375, Sorafenib 20 mpk, TH-302 50 mpk
[18] = NSCLC: H460, Sorafenib 20 mpk, TH-302 50 mpk
[19] = RCC: 786-O, Sorafenib 30 mpk, TH-302 50 mpk
[20] = H460, Sunitinib 5 wks + TH-302 4 wks, sunitinib 40 mpk, alone or with TH-302
[21] = H460, Sunitinib 5 wks + TH-302 4 wks, sunitinib 80 mpk, alone or with TH-302

CO[C@H]1C[C@@H]2CC[C@@H](C)[C@@](O)(O2)C(=O)C(=O)N2CCCC[C@H]2C(=O)O[C@H]([C@H](C)C[C@@H]2CC[C@@H](OCCO)[C@H](OC)C2)CC(=O)[C@H](C)/C=C(\C)[C@@H](O)[C@@H](OC)C(=O)[C@H](C)C[C@H](C)/C=C/C=C/C=C/1C [Everolimus, everolimus]
TGI ([1]; 786-O RCC, TH-302 50 mgs per kg QD×19 or 12 days from Day 8, everolimus QD×19): less than 50%
Max. BW loss (%) ([2]; 786-O RCC, Everolimus 5 mpk monotherapy): 0%
TGI (%) ([3]; Everolimus 5 mpk QD×19 monotherapy): 48.8* %

Cn1c(COP(=O)(NCCBr)NCCBr)cnc1[N+](=O)[O-] [TH-302]
TGI (%) ([1]; 786-O, TH-302 50 mpk i.p. QDx5 for 2 weeks, monotherapy): 9.9%
TGI (%) [1, 13]: 15%
TGI (%) [4, 14]: 67.6* %
TGI (%) [4, 15]: 81* %
TGI (%) [4, 16]: 78 * %
TGI (%) [5]: 15%
TGI (%) (A375 melanoma xenograft): 46 * %
Max. BW loss (%) ([2]; 786-O RCC, TH-302 50 mpk from Day 1, alone or with Everolimus 5 mpk): 0.2%
Max. BW loss (%) ([2]; 786-O RCC, TH-302 50 mpk from Day 8, alone or with Everolimus 5 mpk): 0%
Max. BW loss (%) ([2]; 786-O study, TH-302 50 mpk monotherapy): 0.1%
Max. BW loss (%) [2, 14]: 7.1%
Max. BW loss (%) [2, 15]: 0.6%
Max. BW loss (%) [2, 17]: 1.8%
Max. BW loss (%) [2, 18]: 4.8%
Max. BW loss (%) [2, 19]: 0%
Max. BW loss (%) [6]: 6.3%
TGI ([3]; TH-302 50 mgs per kg QD×19 or 12 days from Day 8, everolimus QD×19): 16%
TGI (%) ([3]; TH-302 50 mpk from Day 1 (QD×19), alone or with Everolimus 5 mpk QD×19): 15.7%
TGI (%) ([3]; TH-302 50 mpk from Day 8 (12 days), alone or with Everolimus 5 mpk QD×19): 14.2%

IFN-α
OS [7]: 23 months
median PFS [7]: 5.4 months
OS (RCC [8]): 21.8 months
median PFS (RCC [8]): 5 months

CC(=O)O[C@H]1C(=O)[C@@]2(C)[C@H]([C@H](OC(=O)c3ccccc3)[C@]3(O)C[C@H](OC(=O)[C@H](O)[C@@H](NC(=O)c4ccccc4)c4ccccc4)C(C)=C1C3(C)C)[C@]1(OC(C)=O)CO[C@@H]1C[C@@H]2O [paclitaxel]
OS (breast cancer): 26.5 months
median PFS (breast cancer): 5.8 months

CCN(CC)CCNC(=O)c1c(C)[nH]c(/C=C2\C(=O)Nc3ccc(F)cc32)c1C [Sunitinib, sunitinib]
hypoxic fraction in the 786-O xenograft tumor ([9]; sunitinib 20 mg/kg QDx5 oral): 1.6±0.9%
hypoxic fraction in the 786-O xenograft tumor ([9]; sunitinib 40 mg/kg QDx5 oral): 17.2±0.9%
tumor hypoxia volume (percent hypoxic fraction) [10]: 24±3.2%
TGI (%) ([1]; 786-O, sunitinib 20 mpk p.o. QDx21, alone or with TH-302 50 mg/kg begun one week later): 16.2%
TGI (%) ([1]; 786-O, sunitinib 40 mpk p.o. QDx21, alone or with TH-302 50 mg/kg begun one week later): 37.9%
TGI (%) ([1]; 786-O, sunitinib 40 mpk p.o. QDx21, alone or with TH-302 50 mg/kg begun one week later, listed as sunitinib): 38%
TGI (%) ([4]; H460, Sunitinib 3 wks + TH-302 2 wks, sunitinib 40 mpk, alone or with TH-302 50 mg/kg): 72.9* %
TGI (%) ([4]; H460, Sunitinib 3 wks + TH-302 2 wks, sunitinib 80 mpk, alone or with TH-302 50 mg/kg): 77.7* %
TGI (%) ([4]; H460, Sunitinib 3 wks + TH-302 2 wks, sunitinib 80 mpk, alone or with TH-302 50 mg/kg, listed as sunitinib): 78%
TGI (%) [4, 20]: 83* %
TGI (%) [4, 21]: 96* %
Max. BW loss (%) ([2]; 786-O study, sunitinib 20 mpk, alone or with TH-302): 0%
Max. BW loss (%) ([2]; 786-O study, sunitinib 40 mpk, alone or with TH-302): 0%
Max. BW loss (%) ([2]; H460, Sunitinib 3 wks + TH-302 2 wks, sunitinib 40 mpk, alone or with TH-302): 0%
Max. BW loss (%) ([2]; H460, Sunitinib 3 wks + TH-302 2 wks, sunitinib 80 mpk, alone or with TH-302): 0%
Max. BW loss (%) [2, 20]: 0.1%
Max. BW loss (%) [2, 21]: 0.5%

CNC(=O)c1cc(Oc2ccc(NC(=O)Nc3ccc(Cl)c(C(F)(F)F)c3)cc2)ccn1 [Sorafenib, sorafenib]
tumor hypoxia volume ([9]; sorafenib 20 mg/kg orally once daily for 7 days): 3.5±1.6%
tumor hypoxia volume ([9]; sorafenib 40 mg/kg orally once daily for 7 days, p<0.05 vs. vehicle): 10±2.5%
TGI (%) [1, 13]: 38 * %
TGI (%) [4, 16]: 74 * %
TGI (%) [5]: 56 * %
TGI (%) (A375 melanoma xenograft): 67 * %
Max. BW loss (%) [2, 17]: 3.1%
Max. BW loss (%) [2, 18]: 4.8%
Max. BW loss (%) [2, 19]: 0.4%
Max. BW loss (%) [6]: 5.6%
median PFS (RCC [11]; placebo 12 weeks): 24 weeks
OS (RCC [11]; placebo 14.3 months): 17.8 months
tumor hypoxia volume ([12]; sorafenib 20 mg/kg once daily for 8 days, p<0.05 vs. vehicle): 6.5±0.6%
tumor hypoxia volume ([12]; sorafenib 40 mg/kg once daily for 8 days, p<0.001 vs. vehicle): 9.3±0.7%
